target: human-cGAS (h-cGAS) (Homo sapiens, UniProt Q8N884); assay: hcGAS Kinase-Glo Assay; assay type: biochemical; details: 40 nM h-cGAS, 100 μM ATP, 100 μM GTP, 25 nM dsDNA, 3 h incubation, read-out: hcGAS potency IC50
Outline: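 IC50 values come from a luminescence-based Kinase-Glo measurement on human cGAS. Conditions follow the Lama et al. 2019 method with minor modifications.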

Sequence of human-cGAS (h-cGAS) (Q8N884 whole entry): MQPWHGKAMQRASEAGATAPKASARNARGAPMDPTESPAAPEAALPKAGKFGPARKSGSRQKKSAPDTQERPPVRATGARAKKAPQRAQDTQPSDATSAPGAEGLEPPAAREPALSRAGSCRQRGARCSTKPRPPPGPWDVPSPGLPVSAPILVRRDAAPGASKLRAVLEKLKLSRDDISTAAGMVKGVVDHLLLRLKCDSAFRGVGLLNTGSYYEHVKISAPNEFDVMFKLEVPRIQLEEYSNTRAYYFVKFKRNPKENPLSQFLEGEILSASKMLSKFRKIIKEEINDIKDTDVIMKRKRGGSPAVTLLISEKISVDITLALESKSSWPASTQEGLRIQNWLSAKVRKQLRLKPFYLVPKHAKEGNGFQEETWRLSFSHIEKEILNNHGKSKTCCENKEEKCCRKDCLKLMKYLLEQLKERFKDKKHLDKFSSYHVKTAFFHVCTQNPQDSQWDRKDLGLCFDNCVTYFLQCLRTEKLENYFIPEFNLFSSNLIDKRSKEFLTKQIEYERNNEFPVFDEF

| SMILES | IC50 [nM] |
| --- | --- |
| COCCNC(=O)c1cc(C(=O)Nc2nnc(-c3ccccc3Cl)s2)on1 [Compound 88, N5-(5-(2-chlorophenyl)-1,3,4-thiadiazol-2-yl)-N3-(2-methoxyethyl)isoxazole-3,5-dicarboxamide] | 500 to 1000 |
| CN(C)C(=O)c1cc(C(=O)Nc2nnc(-c3ccccc3Cl)s2)on1 [Compound 87, N5-(5-(2-chlorophenyl)-1,3,4-thiadiazol-2-yl)-N3,N3-dimethylisoxazole-3,5-dicarboxamide] | 500 to 1000 |
| CSc1nnc(NC(=O)c2nnc(N3CCCC3c3ccccc3)o2)s1 (stereo not shown) [Compound 123, N-(5-(methylthio)-1,3,4-thiadiazol-2-yl)-5-(2-phenylpyrrolidin-1-yl)-1.3,4-oxadiazole-2-carboxamide] | 100 to 500 |
| O=C(Nc1nnc(-c2ccccc2Cl)s1)c1nnc(N2CCC[C@@H]2c2ccccc2)o1 [Compound 118, (R)-N-(5-(2-chlorophenyl)-1,3,4-thiadiazol-2-yl)-5-(2-phenylpyrrolidin-1-yl)-1,3,4-oxadiazole-2-carboxamide] | 100 to 500 |
| CSc1nnc(NC(=O)c2nnc3n2CCN(C(=O)OC(C)(C)C)C3)s1 [Compound 98, tert-butyl 3-{[5-(methylsulfanyl)-1,3,4-thiadiazol-2-yl]carbamoyl}-5H,6H,8H-[1,2,4]triazolo[4,3-a]pyrazine-7-carboxylate] | ≥ 1000 |
| Cc1cccc(-c2nnc(NC(=O)c3onc4ccccc34)s2)c1 [Compound 28, N-(5-(m-tolyl)-1,3,4-thiadiazol-2-yl)benzo[c]isoxazole-3-carboxamide] | ≥ 1000 |
| CSc1nnc(NC(=O)c2noc(N3CCCC3c3ccccc3)n2)s1 (stereo not shown) [Compound 99, N-(5-(methylthio)-1,3,4-thiadiazol-2-yl)-5-(2-phenylpyrrolidin-1-yl)-1,2,4-oxadiazole-3-carboxamide] | ≥ 1000 |
| CSc1nnc(NC(=O)c2nnc(N3CCCC[C@H]3c3ccccc3)o2)s1 (single isomer, unassigned) [Compound 122*] | 100 to 500 |
| CSc1nnc(NC(=O)c2nnc3ccccn23)s1 [Compound 260] | ≥ 1000 |
| O=C(Nc1nnc(-c2cccc(F)c2)s1)c1onc2ccccc12 [Compound 25, N-(5-(3-fluorophenyl)-1,3,4-thiadiazol-2-yl)benzo[c]isoxazole-3-carboxamide] | ≥ 1000 |
| O=C(Nc1nnc(-c2ccccn2)s1)c1onc2ccccc12 [Compound 21, N-(5-(pyridin-2-yl)-1,3,4-thiadiazol-2-yl)benzo[c]isoxazole-3-carboxamide] | 500 to 1000 |
| CSc1nnc(NC(=O)c2nnn(-c3cccnc3)n2)s1 [Compound 137, N-(5-(methylthio)-1,3,4-thiadiazol-2-yl)-2-(pyridin-3-yl)-2H-tetrazole-5-carboxamide] | ≥ 1000 |
| CSc1nnc(NC(=O)c2nnn(Cc3ccccc3)n2)s1 [Compound 134, 2-benzyl-N-(5-(methylthio)-1,3,4-thiadiazol-2-yl)-2H-tetrazole-5-carboxamide] | ≥ 1000 |
| O=C(Nc1ccccc1)c1cc(C(=O)Nc2nnc(-c3ccccc3Cl)s2)on1 [Compound 92, N5-(5-(2-chlorophenyl)-1,3,4-thiadiazol-2-yl)-N3-phenylisoxazole-3,5-dicarboxamide] | 100 to 500 |
| CCc1nnc(NC(=O)c2onc3ccccc23)s1 [Compound 69, N-(5-ethyl-1,3,4-thiadiazol-2-yl)benzo[c]isoxazole-3-carboxamide] | 500 to 1000 |
| O=C(Nc1nnc(-c2ncccn2)s1)c1onc2ccccc12 [Compound 148, N-(5-(pyrimidin-2-yl)-1,3,4-thiadiazol-2-yl)benzo[c]isoxazole-3-carboxamide] | ≥ 1000 |
| CSc1nnc(NC(=O)c2nnc(N3CCC(O)C3)o2)s1 (stereo not shown) [Compound 116, 5-(3-hydroxypyrrolidin-1-yl)-N-[5-(methylsulfanyl)-1,3,4-thiadiazol-2-yl]-1,3,4-oxadiazole-2-carboxamide] | 500 to 1000 |
| O=C(Nc1nnc(-c2cnccn2)s1)c1onc2ccccc12 [Compound 130, N-[5(pyrazin-2-yl)-1,3,4-thiadiazol-2-yl]-2,1-benzoxazole-3-carboxamide] | 500 to 1000 |

Second part, the compound after the results:

| IC50 [nM] | SMILES |
| --- | --- |
| 500 to 1000 | CSc1nnc(NC(=O)c2cc(-c3cnc4ccccc4c3)cc(=O)o2)s1 [Compound 255, N-(5-methylsulfanyl-1,3,4-thiadiazol-2-yl)-6-oxo-4-(3-quinolyl)pyran-2-carboxamide] |
| < 100 | Nc1cc(C(=O)Nc2nnc(-c3ccccc3Cl)s2)on1 [Compound 4, 3-amino-N-(5-(2-chlorophenyl)-1,3,4-thiadiazol-2-yl)isoxazole-5-carboxamide] |
| 100 to 500 | CCc1cc(C(=O)Nc2nnc(-c3ccccc3Cl)s2)on1 [Compound 33, N-(5-(2-chlorophenyl)-1,3,4-thiadiazol-2-yl)-3-ethylisoxazole-5-carboxamide] |
| 500 to 1000 | CSc1nnc(NC(=O)c2cc(-c3ccc(Cl)cc3)cc(=O)o2)s1 [Compound 243, 4-(4-chlorophenyl)-N-(5-methylsulfanyl-1,3,4-thiadiazol-2-yl)-6-oxo-pyran-2-carboxamide] |
| ≥ 1000 | CSc1nnc(NC(=O)c2cc(-c3ccccc3)ncn2)s1 [Compound 201, N-(5-(methylthio)-1,3,4-thiadiazol-2-yl)-6-phenylpyrimidine-4-carboxamide] |
| 100 to 500 | CSc1nnc(NC(=O)c2onc3c2ccc2cccnc23)s1 [Compound 94, N-(5-(methylthio)-1,3,4-thiadiazol-2-yl)isoxazolo[4,3-h]quinoline-3-carboxamide] |
| 100 to 500 | COc1ccc2c(C(=O)Nc3nnc(SC)s3)onc2c1 [Compound 231, 6-methoxy-N-[5-(methylsulfanyl)-1,3,4-thiadiazol-2-yl]-2,1-benzoxazole-3-carboxamide] |
| 500 to 1000 | CSc1nnc(NC(=O)c2onc3cc(F)ccc23)s1 [Compound 222, 6-fluoro-N-[5-(methylsulfanyl)-1,3,4-thiadiazol-2-yl]-2,1-benzoxazole-3-carboxamide] |
| 500 to 1000 | CSc1nnc(NC(=O)c2cc(-c3ccc(=O)[nH]c3)cc(=O)o2)s1 [Compound 272, N-(5-(methylthio)-1,3,4-thiadiazol-2-yl)-2-oxo-4-(6-oxo-1,6-dihydropyridin-3-yl)-2H-pyran-6-carboxamide] |
| 500 to 1000 | CSc1nnc(NC(=O)c2cc(Oc3ccccc3)cc(=O)o2)s1 [Compound 202, N-(5-(methylthio)-1,3,4-thiadiazol-2-yl)-2-oxo-4-phenoxy-2H-pyran-6-carboxamide] |
| 500 to 1000 | CSc1nnc(NC(=O)c2cc(-c3cccc4c3CCC4)no2)s1 [Compound 68, 3-(2,3-dihydro-1H-inden-4-yl)-N-(5-(methylthio)-1,3,4-thiadiazol-2-yl)isoxazole-5-carboxamide] |
| 100 to 500 | CSc1nnc(NC(=O)c2cc(-c3cccc4ccccc34)cc(=O)o2)s1 [Compound 253, N-(5-methylsulfanyl-1,3,4-thiadiazol-2-yl)-4-(1-naphthyl)-6-oxo-pyran-2-carboxamide] |
| 500 to 1000 | CSc1nnc(NC(=O)c2onc3ccc(S(=O)(=O)c4ccccc4)cc23)s1 [Compound 164, N-(5-(methylthio)-1,3,4-thiadiazol-2-yl)-5-(phenylsulfonyl)benzo[c]isoxazole-3 carboxamide] |
| 500 to 1000 | CSc1nnc(NC(=O)c2cc(-c3ccccc3Cl)no2)s1 [Compound 216] |
| 500 to 1000 | COC(=O)c1ccc2c(C(=O)Nc3nnc(SC)s3)onc2c1 [Compound 278, methyl 3-((5-(methylthio)-1,3,4-thiadiazol-2-yl)carbamoyl)benzo[c]isoxazole-6-carboxylate] |
| 100 to 500 | CSc1nnc(NC(=O)c2cc(-c3ccc(F)cc3)cc(=O)o2)s1 [Compound 239, 4-(4-fluorophenyl)-N-(5-methylsulfanyl-1,3,4-thiadiazol-2-yl)-6-oxo-pyran-2-carboxamide] |
| 500 to 1000 | CSc1nnc(NC(=O)c2nnc(-c3ccccc3)o2)s1 [Compound 235, N-[5-(methylsulfanyl)-1,3,4-thiadiazol-2-yl]-5-phenyl-1,3,4-oxadiazole-2-carboxamide] |
| ≥ 1000 | CSc1nnc(NC(=O)c2onc3c(C)cccc23)s1 [Compound 226, 7-methyl-N-[5-(methylsulfanyl)-1,3,4-thiadiazol-2-yl]-2,1-benzoxazole-3-carboxamide] |
| 100 to 500 | CSc1nnc(NC(=O)c2cc(-c3c(F)cccc3F)no2)s1 [Compound 46, 3-(2,6-difluorophenyl)-N-(5-(methylthio)-1,3,4-thiadiazol-2-yl)isoxazole-5-carboxamide] |
| 100 to 500 | CSc1nnc(NC(=O)c2cc(-c3ccccc3)cc(=O)o2)s1 [Compound 213, N-[5-(methylsulfanyl)-1,3,4-thiadiazol-2-yl]-6-oxo-4-phenylpyran-2-carboxamide] |
| ≥ 1000 | CSc1nnc(NC(=O)c2onc3ccc(Cc4c[nH]c(=O)c(O)c4)cc23)s1 [Compound 189, 5-((5-Hydroxy-6-oxo-1,6-dihydropyridin-3-yl)methyl)-N-(5-(methylthio)-1,3,4-thiadiazol-2-yl)benzo[c]isoxazole-3-carboxamide] |
| 500 to 1000 | CSc1nnc(NC(=O)c2onc3ccc(Nc4ccccc4)cc23)s1 [Compound 162, N-(5-(methylthio)-1,3,4-thiadiazol-2-yl)-5-(phenylamino)benzo[c]isoxazole-3-carboxamide] |
| 500 to 1000 | CSc1nnc(NC(=O)c2nnc(-c3c(F)cccc3F)o2)s1 [Compound 45, 5-(2,6-difluorophenyl)-N-(5-(methylthio)-1,3,4-thiadiazol-2-yl)-1,3,4-oxadiazole-2-carboxamide] |
| 500 to 1000 | CSc1nnc(NC(=O)c2noc3c2CCc2cccnc2-3)s1 [Compound 180, N-(5-(methylthio)-1,3,4-thiadiazol-2-yl)-4,5-dihydroisoxazolo[4,5-h]quinoline-3-carboxamide] |
| 500 to 1000 | CSc1nnc(NC(=O)c2cc(C3CCC3)no2)s1 [Compound 86, 3-cyclobutyl-N-(5-(methylthio)-1,3,4-thiadiazol-2-yl)isoxazole-5-carboxamide] |
